Each structure is given as a SMILES string. Where “and” joins values, the source holds several entries; their conditions need not be identical. Equal values may be shown once. Read-outs that look alike come from different tables or passages of the source. Bounds are passed on as bounds.

One series relates to KPL-4. The series can be described thus: CELLTITER GLO cell proliferation assay (Example 6). To be noted: data in parenthesis = repeat evaluations. The class given is cell-based. Here is the method: (§1) The toxicity of PBD monomer disulfide prodrugs and diaphorase prodrugs were evaluated against KPL-4, WSU-DLCL2, HCT-116, HCC1395 and Jurkat cell cultures. […] KPL-4 cells further have a high expression of DTD on the order of about 839 nRPKM (where nRPKM refers to normalized reads per Kb of transcript length per million mapped read).
(§2) Potency of the disulfide and DT-diaphorase prodrugs was measured by a cell proliferation assay employing the following protocol (CELLTITER GLO™ Luminescent Cell Viability Assay, Promega Corp.). First, an aliquot of 40 ul of cell culture containing about 8000 cells of WSU-DLCL2 cells (low NQO1 gene and GSH level), 4000 cells of KPL-4 (high NQO1 gene and GSH level), HCT-116 cells, HCC1395 cells or Jurkat cells in RPMI-1640 culture medium (supplemented with 10% fetal bovine serum, 2 mM glutamine, 50 uM cystine, and 0.015 g/L L-methionine) was deposited in each well of a 384-well flat clear bottom white polystyrene tissue culture-treated microplates (Corning, N.Y.). Second, control wells were prepared containing medium with and without cells. Third, compounds with and without disulfide or DT-diaphorase prodrugs (n=3) were added to the experimental wells using ECHO acoustic liquid handling technology (Labcyte Inc, Sunnyvale, Calif.) to create a 10-point dose-response curve in triplicate with 1:3× serial dilution. Fourth, cells were cultured in a humidified incubator set at 37° C. and maintaining an atmosphere of 5% CO2. Fifth, the plates were equilibrated to room temperature for approximately 30 minutes. Sixth, a volume of CELLTITER GLO™ Reagent equal to the volume of cell culture medium present in each well was added. Seventh, the contents were mixed for 10 minutes on an orbital shaker in the dark to induce cell lysis. Eighth, the plate was incubated at room temperature for 30 minutes to stabilize the luminescence signal. Ninth, luminescence was recorded and reported in graphs as % activity where RLU (relative luminescence units) was normalized to controls (no compound control minus no cell control). Tenth, data was plotted as individual points for each replicate (n=3) for each antibody as the mean of luminescence for each set of replicates, with standard deviation error bars.
On the technique in general: Cellular ATP, detected with luciferase, serves as a proxy for viable cell number.

The next series deals with WSU-DLCL2. The series is described as follows: CELLTITER GLO cell proliferation assay (Example 6). The note with it: Homo sapiens, data in parenthesis = repeat evaluations. The series is classed as cell-based. Here is the method:
as §1, §2

Series [1] in a line: Disulfide cleavage by cysteine, LC/MS. The series is classed as physicochemical. The note with it: 15 uM compound, 0.2 mM cysteine, pH 7.0, 37 C. Here is the method: (§3) For disulfide cleavage determination, the compounds were incubated at 15 μM with 0.2 mM cysteine or 4 mM GSH in 100 mM Tris buffer pH 7.0 containing 5% methanol at 37° C. Aliquots were taken at specified time points and the samples were analyzed by LC/MS on Sciex TripleTOF 5600 on a Hypersil Gold C18 column (100×2.1, 1.9 Thermo Scientific). The column was eluted by a gradient of buffer A (0.1% formic acid in 10 mM ammonium acetate) to buffer B (0.1% formic acid in 10 mM ammonium acetate in 90% acetonitrile), 5% B 0-0.5 min, 5-25% B 0.5-8 min, 25-75% B 8-13 min, and 75-95% B 13-13.5 min, 95% B 13.5-14.5 min, 95-5% B 14.5-15 min at 0.4 mL/min. All products were separated and characterized by LC/MS/MS in a positive ESI ion mode. All analytes had the protonated molecular MH+ as the major species with little source fragmentation. Full scan accurate mass peak areas were used to estimate relative abundance of each component.

A short description of series [2]: Disulfide cleavage by glutathione (GSH), LC/MS. The class given is physicochemical. The note with it: 15 uM compound, 4 mM GSH, pH 7.0, 37 C. The protocol:
as §3

The subject of another series is Igrov-1. The series can be described thus: CellTiter-Glo toxicity, 4 days (Example 9). The series is classed as cell-based. To be noted: Homo sapiens, IGROV-1, 96 h, 4 days of drug incubation; Table 7A. Here is the method: (§4) The toxicity of various PBD monomer disulfide prodrugs and PBD dimer disulfide prodrugs was evaluated on UACC-257, Igrov-1 and A2058 cell lines. Cells were seeded in 384-well plate and treated with drug 24 hours later. After 4 days of drug incubation, the cell viability was determined using Promega CellTiter-Glo luminescent reagent, which measures ATP level (an indirect measure of cell number). The luminescent intensity was measured on PerkinElmer Envision reader. The relative cell viability was calculated by normalizing to non-drug treatment control and was graphed using KleidaGraph software package. IC50 value was determined as the concentration to obtain 50% of the maximum cell killing.

The next series relates to UACC-257. The series can be described thus: CellTiter-Glo toxicity, 4 days (Example 9). To be noted: Homo sapiens, UACC-257, 96 h, 4 days of drug incubation; Table 7A. The series is classed as cell-based. Here is the method:
as §4

The test system of another series is A2058. The series is described as follows: CellTiter-Glo toxicity, 4 days (Example 9). The class given is cell-based. The note with it: Homo sapiens, A2058, 96 h, 4 days of drug incubation; Table 7A. The protocol: as §4
For a further series, the system named is SK-BR-3. The series is described as follows: CellTiter-Glo toxicity, 3 days (Example 7). The class given is cell-based. To be noted: Homo sapiens, SK-BR-3, 72 h. Here is the method:
The toxicity of PBD monomer disulfide prodrugs 1 to 4, PBD dimer disulfide prodrugs 1 and 4, PBD monomer control 1 and PBD dimer control 1 were evaluated against SK-BR-3 cell cultures. […] The HER2-positive breast cancer cell line, SK-BR-3, was obtained internally at Genentech after having been verified by sequence analysis. The cells were grown at 37 Celsius in DMEM+10% FBS supplemented with 2 mM L-glutamine for the duration of this assay. On the first day of the experiment, designated “Day −1”, SK-BR-3 cells were harvested from tissue culture flasks, counted, and then seeded into 96-well plates at a concentration of 7,500 cells per well. The next day, designated “Day 0”, cell culture media was removed from the cells and replaced with 100 uL of fresh media containing a serial dilution (1:3) of the compounds in Table 5 below. The plates were then returned to the 37 Celsius incubator and allowed to incubate for 3 days. On “Day 3” of the assay, the plates were removed from the incubator and allowed to equilibrate to room temperature before adding 100 uL of room-temperature CellTiter-Glo reagent (Promega). The plates were then agitated at 300 rpm for 10 minutes. The luminescence signal generated from this reaction was recorded on an Envision plate reader (Perkin-Elmer). The data were arranged in Excel (Microsoft) and graphed in Kaleidagraph (Synergy Software).

A further series has as its system HCT-116. The series is described as follows: CELLTITER GLO cell proliferation assay (Example 6). The class given is cell-based. To be noted: Homo sapiens, HCT-116; Table 4; read-out: IC50 potency HCT-116. The protocol: as §1, §2
For series [3], the system named is double strand DNA Oligos 1 and 2. The series can be described thus: DNA oligo binding, LC/MS/UV. To be noted: 100 uM compound, 100 uM DNA, 1 hour, 37 C. The protocol: For DNA binding determination, the compounds were incubated at 100 μM with 100 μM double strand DNA Oligos 1 and 2 for 1 hour in 10 mM Bis-Tris, pH 7.1 at 37° C. The single strand DNA Oligos (5′-TATAGAATCTATA-3′ and 3′-ATATCTTAGATAT-5′) were synthesized at Genentech. The samples were analyzed by LC/MS/UV (210-450 nm) on Sciex TripleTOF 5600 on a Hypersil Gold C18 column (100×2.1, 1.9 Thermo Scientific). The column was eluted at 0.4 mL/min by a gradient of buffer A (50 mM hexafluoro-isopropanol and 15 mM diisopropylethylamine) to buffer B (50% A and 50% of 1:1 methanol:acetonitrile), 5% 0-0.5 min, 5-25% B 0.5-25 min, 25-95% B 25-40 min, and to 95% B 40-42 min. The % remaining was an average of the starting DNA oligos remaining in incubations (n=2). The products were characterized by LC/MS in a negative ESI ion mode.

Setting [4] is: KPL4, read-out: IC50 potency KPL-4, Table 4.
The mark [5] stands for this setting: WSUDLCL2, read-out: IC50 potency WSU-DLCL2, Table 4.

As for `C=C1C[C@H]2C(O)N(C(=O)OCCSSC(C)C)c3cc(OC)c(OC)cc3C(=O)N2C1` (stereo partly drawn) [PBD monomer disulfide prodrug 2], the IC50 in the series on KPL-4 (setting [4]) was determined as 497 nM; in the series with WSU-DLCL2 (setting [5]), 1020 nM; in the series on Igrov-1, 1870 nM; in the series on UACC-257 it was 1860 nM; in the series with A2058, 635 nM; in the series on SK-BR-3 (read-out: SK-BR-3 IC50 (nM)), 1760 nM. In addition, the “% Remaining at 24 h by Cys” value in [1] worked out at 77.6%. Moreover, the “% Remaining at 24 h by GSH” value in series [2] was 0.4% and 0%.

As for `C=C1C[C@H]2C(O)N(C(=O)OCCSSCC)c3cc(OC)c(OC)cc3C(=O)N2C1` (stereo partly drawn) [PBD monomer disulfide prodrug 1], the IC50 in the series on KPL-4 (setting [4]) was found to be 324 nM; in the series with WSU-DLCL2 (setting [5]) it was 274 nM; in the series with Igrov-1 it was 123 nM; in the series with UACC-257, 276 nM; in the series with A2058, 82.9 nM; in the series with SK-BR-3 (read-out: SK-BR-3 IC50 (nM)), 331 nM. Further, the “% Remaining at 24 h by Cys” value in series [1] is on record as 17.9%. Moreover, in series [2], the “% Remaining at 24 h by GSH” value is recorded as 0.5%.

As to `C=C1C[C@H]2C(O)N(C(=O)OCC3(SSCC)CCC3)c3cc(OCCCCCOc4cc5c(cc4OC)C(=O)N4CC(=C)C[C@H]4C(O)N5C(=O)OCC4(SSCC)CCC4)c(OC)cc3C(=O)N2C1` (stereo partly drawn) [PBD dimer disulfide prodrug 4], the IC50 with Igrov-1 came out at 2.5 nM; with UACC-257 it was 7.8 nM; with SK-BR-3 (read-out: SK-BR-3 IC50 (nM)), 3.09 nM.

Regarding `C=C1C[C@H]2C(O)N(C(=O)OCC(C)(C)SSC(C)(C)C)c3cc(OC)c(OC)cc3C(=O)N2C1` (stereo partly drawn) [PBD monomer disulfide prodrug 4], the half-inhibitory concentration (IC50) in the series on KPL-4 (setting [4]) is above 10000 nM; in the series with WSU-DLCL2 (setting [5]), above 10000 nM; with Igrov-1, 12600 nM; with UACC-257, 19200 nM; in the series with A2058, 8110 nM; in the series with SK-BR-3 (read-out: SK-BR-3 IC50 (nM)), above 10000 nM. Also, the “% Remaining at 24 h by Cys” value in series [1] came out at 99.9%. In addition, in series [2], the “% Remaining at 24 h by GSH” value stood at 99.9%.

With `C=C1C[C@H]2C=Nc3cc(OCCCCCOc4cc5c(cc4OC)C(=O)N4CC(=C)C[C@H]4C(O)N5C(=O)OCc4cn(C)c5c4C(=O)C(OC)=CC5=O)c(OC)cc3C(=O)N2C1` (stereo partly drawn) [PBD dimer diaphorase prodrug 3], the IC50 with KPL-4 (KPL4, Table 4, read-out: IC50 potency KPL-4) was 1.87 nM; with WSU-DLCL2 (WSUDLCL2, Table 4, read-out: IC50 potency WSU-DLCL2), 0.24 nM; with HCT-116, 1.23 nM.

Turning to `C=C1C[C@H]2C=Nc3cc(OCCCCCOc4cc5c(cc4OC)C(=O)N4CC(=C)C[C@H]4C(O)N5C(=O)OCC4(SSCC)CCC4)c(OC)cc3C(=O)N2C1` (stereo partly drawn) [PBD dimer disulfide prodrug 1], in [3], the “% DNA oligo remaining” value is above 99.5%. Further, the IC50 turned out to be 0.21 nM in the series on Igrov-1; 2.2 nM in the series on UACC-257; 2.39 nM in the series with SK-BR-3 (3 days, read-out: SK-BR-3 IC50).

As to `C=C1C[C@H]2C(O)N(C(=O)OCC3(SSCC)CCC3)c3cc(OC)c(OC)cc3C(=O)N2C1` (stereo partly drawn) [PBD monomer disulfide prodrug 3], the IC50 with KPL-4 (setting [4]) stood at 360 nM; with WSU-DLCL2 (setting [5]), 531 nM; in the series with Igrov-1, 254 nM; in the series on UACC-257, 356 nM; in the series on A2058, 75.2 nM; in the series with SK-BR-3 (read-out: SK-BR-3 IC50 (nM)), 616 nM. In addition, the “% Remaining at 24 h by Cys” value in series [1] was found to be 73.5%. Also, the “% Remaining at 24 h by GSH” value in series [2] stood at 2.90%.

In general, IC50 refers to the concentration needed to halve the response being measured.

These data come from patent US11576979B2, “Pyrrolobenzodiazepine prodrugs and antibody conjugates thereof” (GENENTECH, INC., priority 2016, dated 2023).
